Experiment [1] deals with T1, recombinant human Lp-PLA2 (Homo sapiens, UniProt Q13093).
T1 sequence (Q13093 22-441): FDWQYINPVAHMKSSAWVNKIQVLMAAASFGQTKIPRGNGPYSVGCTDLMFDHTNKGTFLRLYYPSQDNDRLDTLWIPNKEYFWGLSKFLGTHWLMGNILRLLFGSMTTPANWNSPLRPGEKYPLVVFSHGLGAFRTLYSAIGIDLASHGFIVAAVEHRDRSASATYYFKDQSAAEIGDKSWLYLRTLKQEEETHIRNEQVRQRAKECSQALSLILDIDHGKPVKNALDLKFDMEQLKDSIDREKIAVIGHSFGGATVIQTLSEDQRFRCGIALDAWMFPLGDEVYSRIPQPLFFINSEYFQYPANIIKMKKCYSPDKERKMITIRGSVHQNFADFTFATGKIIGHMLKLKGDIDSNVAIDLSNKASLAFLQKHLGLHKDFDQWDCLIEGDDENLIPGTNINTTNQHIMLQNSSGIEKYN
The experiment can be described thus: (1a) PED6 assay, recombinant human Lp-PLA2 (rhLp-PLA2). Format: biochemical. The conditions noted are these: Examples 1-167 and 413-430 were tested here, one experiment or average of multiple experiments, read-out: rhLp-PLA2 (pIC50) (converted). Put shortly:
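PED6 (2 μM final after 1:1 addition of 4 μM stock) cleavage by rhLp-PLA2 (4 nM working solution) in 50 mM HEPES pH 7.4, 150 mM NaCl, 1 mM CHAPS; compounds preincubated with enzyme 30 minutes, reaction 20 min at room temperature. Fluorescence at ex 480/em 540; pIC50 from curve fit.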

Experiment [2] deals with T2, Lp-PLA2 in human plasma (Homo sapiens, UniProt Q13093).
T2 construct: from tissue; host or cells: pooled human plasma
T2 sequence (Q13093 22-441): T1 sequence (Q13093 22-441)
The experiment can be described thus: (3a) Lp-PLA2 human plasma Thio-PAF assay. Format: biochemical. Particulars: (3a) Thio-PAF assay, pooled human plasma; Examples 1-265 and 413-430 were tested here; read-out: pIC50 in the Lp-PLA2 human plasma assay (converted). Put shortly:
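Endogenous Lp-PLA2 activity in frozen pooled human plasma measured as thiol release from 2-thio-PAF, detected by CPM fluorescence (ex 380/em 485). Compound preincubation 30 min; 2-min reaction in HEPES pH 7.4 buffer with NEM, stopped with 5% TFA, read 40 min later at room temperature; values as pIC50.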

Molecules are shown by their SMILES. Some results are limits rather than exact numbers.

Consider `O=c1nc(OCc2cc(F)c(F)c(F)c2)cc2n1CC1CCCCN21` (stereo not drawn) [Example E2, 3-((3,4,5-Trifluorobenzyl)oxy)-6,7,8,9,9a,10-hexahydro-1H-pyrido[1′,2′:3,4]imidazo[1,2-c] pyrimidin-1-one], for which the IC50 was not above 100 nM in experiment [1] and not above 0.1 µM in experiment [2].

Take `O=c1nc(OCc2ccc(Oc3ccc(F)c(C(F)(F)F)c3)nc2)cc2n1CC1CCCN21` (stereo not drawn) [Example E82, 3-((6-(4-fluoro-3-(trifluoromethyl)phenoxy)pyridin-3-yl)methoxy)-7,8,8a,9-tetrahydro pyrrolo[1′,2′:3,4]imidazo[1,2-c]pyrimidin-1(6H)-one]: the IC50 in experiment [1] was not above 100 nM; in experiment [2], not above 10 µM.

Regarding `O=c1nc(OCc2cc(F)c(F)c(F)c2)cc2n1C[C@H]1CCCN21` [Example E70, (R)-3-((3,4,5-trifluorobenzyl)oxy)-7,8,8a,9-tetrahydropyrrolo[1′,2′:3,4]imidazo[1,2-c] pyrimidin-1(6H)-one], the IC50 in experiment [1] was not above 100 nM; in experiment [2], not above 0.1 µM.

In the case of `Cc1cc(COc2cc3n(c(=O)n2)CC2CCCCN32)cc(F)c1F` (stereo not drawn) [Example E14, 3-((3,4-Difluoro-5-methylbenzyl)oxy)-6,7,8,9,9a,10-hexahydro-1H pyrido[1′,2′:3,4]imidazo-[1,2-c]pyrimidin-1-one], the IC50 in experiment [1] was not above 100 nM; in experiment [2] it was not above 10 µM.

For the compound `O=c1nc(OCc2ccc(Oc3ccc(F)c(F)c3)c(F)c2)cc2n1CC1CCCCN21` (stereo not drawn) [Example E18, 3-((4-(3,4-Difluorophenoxy)-3-fluorobenzyl)oxy)-6,7,8,9,9a,10-hexahydro-1H-pyrido[1′,2′:3,4]imidazo[1,2-c]pyrimidin-1-one], the results for the IC50 in experiment [1] and in experiment [2] were not above 100 nM and not above 10 µM, respectively.

Regarding `O=c1nc(OCc2cc(F)c(Oc3ccc(C(F)(F)F)nc3)c(F)c2)cc2n1CC1CCCCN21` (stereo not drawn) [Example E25, 3-((3,5-Difluoro-4-((6-(trifluoromethyl)pyridin-3-yl)oxy)benzyl)oxy)-6,7,8,9,9a,10-hexahydro-1H-pyrido[1′,2′:3,4]imidazo[1,2-c]pyrimidin-1-one], the IC50 was not above 1 nM in experiment [1] and not above 0.1 µM in experiment [2].

On to `O=c1nc(OCc2ccc(F)cc2F)cc2n1C[C@H]1CCCN21` [Example E100, (R)-3-((2,4-difluorobenzyl)oxy)-7,8,8a,9-tetrahydropyrrolo[1,2′:3,4]imidazo[1,2-c] pyrimidin-1(6H)-one], for which the IC50 in experiment [1] was not above 100 nM; in experiment [2], not above 10 µM.

Turning to `N#Cc1cccc(COc2cc3n(c(=O)n2)C[C@@H]2CCCCN32)c1` [Example E33, (S)-3-(((1-Oxo-6,7,8,9,9a,10-hexahydro-1H-pyrido[1′,2′:3,4]imidazo[1,2-c]pyrimidin-3-yl)oxy)methyl)benzonitrile], the IC50 in experiment [1] is not above 100 nM; in experiment [2], not above 10 µM.

`CN1c2cc(OCc3cccc(F)c3)nc(=O)n2CC12CCCCC2` [Example 417]: the values for the IC50 in experiment [1] and in experiment [2] were not above 100 nM and not above 10 µM, respectively.

Turning to `O=c1nc(OCc2cc(F)cc(Cl)c2)cc2n1CC1CCCCN21` (stereo not drawn) [Example E29, 3-((3-Chloro-5-fluorobenzyl)oxy)-6,7,8,9,9a,10-hexahydro-1H-pyrido[1′,2′:3,4]imidazo[1,2-c]pyrimidin-1-one], the IC50 in experiment [1] was not above 100 nM; in experiment [2], not above 10 µM.

Take `Cn1cc(Oc2c(F)cc(COc3cc4n(c(=O)n3)C[C@H]3CCOCN43)cc2F)cn1` [Example E137, (R)-3-((3,5-difluoro-4-((1-methyl-1H-pyrazol-4-yl)oxy)benzyl)oxy)-8,9,9a,10-tetrahydropyrimido[6′,1′:2,3]imidazo[1,5-c][1,3]oxazin-1(6H)-one]: the IC50 in experiment [1] was not above 100 nM; in experiment [2], not above 10 µM.

On to `O=c1nc(OCc2cc(F)c(Oc3cnc(C(F)(F)F)nc3)c(F)c2)cc2n1CC1CCCN21` (stereo not drawn) [Example E90, 3-((3,5-Difluoro-4-((2-(trifluoromethyl)pyrimidin-5-yl)oxy)benzyl)oxy)-7,8,8a,9-tetrahydro pyrrolo[1′,2′:3,4]imidazo[1,2-c]pyrimidin-1(6H)-one], for which the IC50 was not above 1 nM in experiment [1] and not above 0.1 µM in experiment [2].

With `O=c1nc(OCc2cccc(F)c2F)cc2n1C[C@@H]1COCCN21` [Example E131, (R)-7-((2,3-difluorobenzyl)oxy)-3,4,11,11a-tetrahydropyrimido[6′,1′:2,3]imidazo[5,1-c][1,4] oxazin-9(1H)-one], the results for the IC50 in experiment [1] and in experiment [2] were not above 100 nM and not above 0.1 µM, respectively.

Consider `CC(C)n1cc(Oc2c(F)cc(COc3cc4n(c(=O)n3)CC3CCCN43)cc2F)cn1` (stereo not drawn) [Example E65, 3-((3,5-Difluoro-4-((1-isopropyl-1H-pyrazol-4-yl)oxy)benzyl)oxy)-7,8,8a, 9-tetrahydro pyrrolo[1′,2′:3,4]imidazo[1,2-c]pyrimidin-1(6H)-one], for which the IC50 in experiment [1] was not above 100 nM; in experiment [2], not above 10 µM.

For `N#Cc1cc(Oc2ccc(COc3cc4n(c(=O)n3)CC3CCCCN43)cc2F)cc(C(F)(F)F)c1` (stereo not drawn) [Example E28, 3-(2-Fluoro-4-(((1-oxo-6,7,8,9,9a,10-hexahydro-1H-pyrido[1′,2′:3,4]imidazo[1,2-c]pyrimidin-3-yl)oxy)methyl)phenoxy)-5-(trifluoromethyl)benzonitrile], the IC50 is not above 1 nM in experiment [1] and not above 0.1 µM in experiment [2].

Take `Cn1cc(Oc2c(F)cc(COc3cc4n(c(=O)n3)C[C@H]3CCCN43)cc2F)cn1` [Example E66, (R)-3-((3,5-difluoro-4-((1-methyl-1H-pyrazol-4-yl)oxy)benzyl)oxy)-7,8,8a, 9-tetrahydro pyrrolo[1′,2′:3,4]imidazo[1,2-c]pyrimidin-1(6H)-one]: the IC50 in experiment [1] is not above 100 nM; in experiment [2] it was not above 10 µM.

`N#Cc1cc(COc2cc3n(c(=O)n2)CC2CCCN32)ccc1Oc1cc(F)cc(F)c1` (stereo not drawn) [Example E87, 2-(3,5-Difluorophenoxy)-5-(((1-oxo-1,6,7,8,8a,9-hexahydropyrrolo[1,2′:3,4]imidazo[1,2-c]pyrimidin-3-yl)oxy)methyl)benzonitrile]: the IC50 was not above 1 nM in experiment [1] and not above 0.1 µM in experiment [2].

As for `O=c1nc(OCc2cc(F)c(Oc3cncc(C(F)(F)F)c3)c(F)c2)cc2n1CC1CCCCN21` (stereo not drawn) [Example E21, 3-((3,5-Difluoro-4-((5-(trifluoromethyl)pyridin-3-yl)oxy)benzyl)oxy)-6,7,8,9,9a,10-hexahydro-1H-pyrido[1′,2′:3,4]imidazo[1,2-c]pyrimidin-1-one], the IC50 in experiment [1] was not above 1 nM; in experiment [2], not above 0.1 µM.

Turning to `N#Cc1cc(F)cc(COc2cc3n(c(=O)n2)CC2CCCCN32)c1` (stereo not drawn) [Example E15, 3-Fluoro-5-(((1-oxo-6,7,8,9,9a,10-hexahydro-1H-pyrido[1′,2′:3,4]imidazo[1,2-c]pyrimidin-3-yl)oxy)methyl)benzonitrile], the IC50 in experiment [1] is not above 100 nM; in experiment [2] it was not above 10 µM.

`O=c1nc(OCc2cc(F)c(Oc3ccc(C(F)(F)F)nc3)c(F)c2)cc2n1CC1CCCCN21` (stereo not drawn) [Example E49, 3-((3,5-difluoro-4-((6-(trifluoromethyl)pyridin-3-yl)oxy)benzyl)oxy)-6,7,8,9,9a,10-hexahydro-1H-pyrido[1′,2′:3,4]imidazo[1,2-c]pyrimidin-1-one]: the results for the IC50 in experiment [1] and in experiment [2] were not above 1 nM and not above 0.1 µM, respectively.

Take `O=c1nc(OCc2cc(F)c(F)c(F)c2)cc2n1C[C@@H]1COCCN21` [Example E123, (R)-7-((3,4,5-trifluorobenzyl)oxy)-3,4,11,11atetrahydropyrimido[6′,1′:2,3]imidazo[5,1-c][1,4] oxazin-9(1H)-one]: the IC50 is not above 100 nM in experiment [1] and not above 10 µM in experiment [2].

In the case of `CCn1cc(Oc2c(F)cc(COc3cc4n(c(=O)n3)CC3COCCN43)cc2F)cn1` (stereo not drawn) [Example E109, 7-((4-((1-Ethyl-1H-pyrazol-4-yl)oxy)-3,5-difluorobenzyl)oxy)-3,4,11,11a-tetrahydropyrimido[6′,1′:2,3]imidazo[5,1-c][1,4]oxazin-9(1H)-one], the values for the IC50 in experiment [1] and in experiment [2] were 1.26 nM and not above 0.1 µM, respectively.

In the case of `O=c1nc(OCc2cc(F)c(Oc3ccnc(C(F)(F)F)c3)c(F)c2)cc2n1CC1OCCN21` (single isomer, unassigned) [Example E165, 6-((3,5-difluoro-4-((2-(trifluoromethyl)pyridin-4-yl)oxy)benzyl)oxy)-10,10a-dihydro-2H-oxazolo[3′,2′:3,4]imidazo[1,2-c]pyrimidin-8(3H)-one], the IC50 in experiment [1] was not above 100 nM; in experiment [2], not above 0.1 µM.

`N#Cc1cc(Oc2ccc(COc3cc4n(c(=O)n3)CC3CCCCN43)cc2F)ccc1Cl` (stereo not drawn) [Example E11, 2-Chloro-5-(2-fluoro-4-(((1-oxo-6,7,8,9,9a,10-hexahydro-1H-pyrido[1′,2′:3,4]imidazo[1,2-c]pyrimidin-3-yl)oxy)methyl)phenoxy)benzonitrile]: the results for the IC50 in experiment [1] and in experiment [2] were not above 1 nM and not above 0.1 µM, respectively.
